# Values joined by “and” are separate entries in the source; they are usually repeats but may differ in a detail not shown here. Equal values may be shown once. Read-outs that look alike come from different tables or passages of the source.
# Key:
# [1] = target: T1, β1-AR (Homo sapiens, UniProt P08588); test: Competition binding assay, recombinant β1-AR
# T1 construct: expressed in transfected cells; membranes prepared from them
# [2] = Human plasma protein binding; format: in vitro ADME
# [3] = target: CYP3A4 (Homo sapiens, UniProt P08684); test: In vitro CYP metabolism; format: in vitro ADME
# Chain of CYP3A4 (P08684 whole entry): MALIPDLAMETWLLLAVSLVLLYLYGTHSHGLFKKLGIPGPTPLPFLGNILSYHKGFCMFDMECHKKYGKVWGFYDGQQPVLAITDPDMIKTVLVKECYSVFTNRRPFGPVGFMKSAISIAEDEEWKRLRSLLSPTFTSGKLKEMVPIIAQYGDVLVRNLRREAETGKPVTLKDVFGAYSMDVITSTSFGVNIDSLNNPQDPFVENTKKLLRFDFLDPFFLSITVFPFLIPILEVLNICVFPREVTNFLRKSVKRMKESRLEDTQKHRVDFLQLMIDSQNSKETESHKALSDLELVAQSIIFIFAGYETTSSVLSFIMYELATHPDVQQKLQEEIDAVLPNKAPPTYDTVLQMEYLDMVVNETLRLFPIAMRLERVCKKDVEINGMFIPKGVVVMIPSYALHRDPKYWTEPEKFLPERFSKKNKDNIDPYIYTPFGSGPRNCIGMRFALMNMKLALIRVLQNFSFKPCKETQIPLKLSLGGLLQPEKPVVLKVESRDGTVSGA
# [4] = Single rising oral dose Phase 1 PK, healthy adults (young males unless stated); format: in vivo, human; details: for AUC(0-inf) / Cmax / AUC(0-t) / half-life: human, plasma, oral; for AUC(0-t): read-out: AUC0-24
# Procedure: The steady state AUC geometric mean accumulation ratios were ˜2 in young male subjects and ˜2.8 in elderly subjects (male and female).
# All subjects were healthy adults. […] Systemic exposures were greater than dose proportional up to 600 mg.
# Although exposures were similar in middle-aged males when compared to young males, plasma concentrations were higher in elderly compared to middle-aged and young subjects. […] Furthermore, the steady state AUC geometric mean accumulation ratios were ˜2 in young males and ˜2.8 in the elderly.
# [5] = Capsule vs tablet single-dose crossover PK, 150 mg, healthy males; format: in vivo; details: male, human, plasma, oral
# Description: Tmax and the apparent terminal t1/2 were also similar between the two formulations.
# [6] = Effect of food on oral absorption; format: in vivo, human; details: for Cmax / Tmax / AUC(0-t) / AUC(0-inf): human, plasma, oral; for AUC(0-t): read-out: AUC0-24
# [7] = Moderate hepatic impairment PK, single 100 mg; format: in vivo, human; details: for half-life: read-out: Apparent terminal t1/2 (converted)
# [8] = Maximum MA4 heart rate, multiple-dose Phase 1 study, day 14; format: in vivo, human
# Procedure: More intensive assessments of heart rate and blood pressure were performed in healthy volunteers in several Phase 1 studies. […] Doses ranged from 25 to 400 mg once daily for 7 to 28 days depending on the cohort. Least squares mean and 90% confidence intervals of maximum change from baseline in moving average of heart rate over 4 hours postdose (MA4 HR) are presented in Table 14.
# [9] = target: CYP2D6 (Homo sapiens, UniProt P10635); details: Rutman et al. 2019; cited from earlier work
# Chain of CYP2D6 (P10635 whole entry): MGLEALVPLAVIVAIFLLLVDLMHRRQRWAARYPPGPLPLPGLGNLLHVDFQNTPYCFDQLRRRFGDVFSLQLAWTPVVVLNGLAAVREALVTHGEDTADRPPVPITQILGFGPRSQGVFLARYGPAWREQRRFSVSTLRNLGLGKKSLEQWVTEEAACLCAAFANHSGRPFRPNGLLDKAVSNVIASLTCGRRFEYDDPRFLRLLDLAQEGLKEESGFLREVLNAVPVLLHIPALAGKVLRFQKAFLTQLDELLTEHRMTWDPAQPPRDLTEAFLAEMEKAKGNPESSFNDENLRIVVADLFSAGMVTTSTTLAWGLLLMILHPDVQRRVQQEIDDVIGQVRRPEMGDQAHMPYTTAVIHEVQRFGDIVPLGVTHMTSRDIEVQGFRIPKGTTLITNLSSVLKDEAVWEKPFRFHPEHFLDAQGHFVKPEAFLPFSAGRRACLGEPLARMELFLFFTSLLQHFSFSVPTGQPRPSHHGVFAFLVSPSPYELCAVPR
# [10] = clinical; details: human, 100 mg
# Description: The relationship between clearance and renal function was modeled using linear regression.
# [11] = target: β3-AR (Homo sapiens, UniProt P13945); test: Adenylyl cyclase functional assay in CHO cells stably expressing human β3-AR; format: cell-based; parameters: expressed in transfected cells
# Chain of β3-AR (P13945 whole entry): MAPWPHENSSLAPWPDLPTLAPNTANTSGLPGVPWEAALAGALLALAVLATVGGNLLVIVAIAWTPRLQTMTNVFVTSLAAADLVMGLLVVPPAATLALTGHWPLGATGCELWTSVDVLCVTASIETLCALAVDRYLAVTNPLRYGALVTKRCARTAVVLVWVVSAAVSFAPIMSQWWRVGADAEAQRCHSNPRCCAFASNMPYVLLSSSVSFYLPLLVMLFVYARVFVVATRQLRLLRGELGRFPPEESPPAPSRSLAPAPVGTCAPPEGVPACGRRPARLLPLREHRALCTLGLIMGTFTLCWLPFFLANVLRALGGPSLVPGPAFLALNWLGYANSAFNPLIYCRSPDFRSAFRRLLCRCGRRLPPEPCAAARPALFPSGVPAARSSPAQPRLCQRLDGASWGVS
# Procedure: The degree of activation relative to a proven full agonist (isoproterenol) was measured along with the compound EC50.
# [12] = both sexes, 50 mg, single 50 mg, elderly male and female
# [13] = male, 10 mg, single 10 mg, Japanese
# [14] = male, 50 mg, single 50 mg, Japanese, fasted
# [15] = male, 50 mg, single 50 mg, fasted
# [16] = male, 100 mg, single 100 mg, Japanese
# [17] = male, 200 mg, single 200 mg, Japanese
# [18] = male, 300 mg, single 300 mg, Japanese
# [19] = 50 mg, high-fat meal, non-Japanese young males
# [20] = 50 mg, standard Japanese breakfast, Japanese young males
# [21] = 150 mg multiple dose, middle-aged and elderly females, Day 1
# [22] = female, 150 mg, 150 mg multiple dose day 14, middle-aged females, fed
# [23] = male, 50 mg, single 50 mg, Japanese young males, fed
# [24] = male, 50 mg, single 50 mg, non-Japanese young males, fed
# [25] = human, plasma, oral, 100 mg, healthy matched controls
# [26] = human, plasma, oral, 100 mg, moderate hepatic impairment
# T1 sequence (P08588 whole entry): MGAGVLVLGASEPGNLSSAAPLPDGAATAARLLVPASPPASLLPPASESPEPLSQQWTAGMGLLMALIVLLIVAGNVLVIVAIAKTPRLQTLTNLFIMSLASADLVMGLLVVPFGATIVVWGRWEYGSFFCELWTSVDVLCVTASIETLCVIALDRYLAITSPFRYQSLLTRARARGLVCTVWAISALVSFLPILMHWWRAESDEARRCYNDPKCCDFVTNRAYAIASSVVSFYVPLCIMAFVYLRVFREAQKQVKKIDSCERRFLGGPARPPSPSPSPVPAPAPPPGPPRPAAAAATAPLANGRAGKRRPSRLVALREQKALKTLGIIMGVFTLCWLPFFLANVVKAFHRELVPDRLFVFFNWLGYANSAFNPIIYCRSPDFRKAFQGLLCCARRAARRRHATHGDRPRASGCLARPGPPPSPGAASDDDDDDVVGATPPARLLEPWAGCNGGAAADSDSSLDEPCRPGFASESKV
structure (smiles),measurement,setting,value
"O=C(Nc1ccc(C[C@@H]2CC[C@H]([C@H](O)c3ccccc3)N2)cc1)[C@@H]1CCc2nccc(=O)n21 [Vibegron, (6S)-N-[4-[[(2S,5R)-5-[(R)-hydroxy(phenyl)methyl]pyrrolidin-2-yl]methyl]phenyl]-4-oxo-7,8-dihydro-6H-pyrrolo[1,2-a]pyrimidine-6-carboxamide]",binding to β1-AR,[1],does not bind
same,bound to human plasma proteins,[2],approximately 49%
same,unbound in human plasma,[2],49%
same,CYP responsible for in vitro metabolism,[3],CYP3A4 is the predominant CYP responsible for in vitro metabolism
same,AUC(0-inf),[4]; [12],951 ± 300 ng·h/mL
same,Cmax,[4]; [12],50.2 ± 23.6 ng/mL
same,AUC(0-t),[4]; [12],314 ± 119 ng·h/mL
same,half-life,"[4]; both sexes, 50 mg, single 50 mg, elderly male and female, read-out: t1/2 (converted)",92 h
same,Cmax,"[4]; male, 2 mg, single 2 mg",0.28 ± 0.02 ng/mL
same,AUC(0-t),"[4]; male, 2 mg, single 2 mg",0.8 ± 0.33 ng·h/mL
same,Cmax,"[4]; male, 5 mg, single 5 mg",0.79 ± 0.3 ng/mL
same,AUC(0-t),"[4]; male, 5 mg, single 5 mg",8.31 ± 4.8 ng·h/mL
same,AUC(0-inf),"[4]; male, 10 mg, single 10 mg",70.7 ± 34.9 ng·h/mL
same,Cmax,"[4]; male, 10 mg, single 10 mg",4.76 ± 4.58 ng/mL
same,AUC(0-inf),[4]; [13],98.7 ± 27.3 ng·h/mL
same,Cmax,[4]; [13],3.34 ± 1.97 ng/mL
same,AUC(0-t),[4]; [13],31 ± 9.33 ng·h/mL
same,half-life,"[4]; male, 10 mg, single 10 mg, Japanese, read-out: t1/2 (converted)",57.6 ± 39 h
same,AUC(0-t),"[4]; male, 10 mg, single 10 mg",30 ± 12.6 ng·h/mL
same,half-life,"[4]; male, 10 mg, single 10 mg, read-out: t1/2 (converted)",43.2 ± 13 h
same,AUC(0-inf),"[4]; male, 20 mg, single 20 mg",121 ± 48.9 ng·h/mL
same,Cmax,"[4]; male, 20 mg, single 20 mg",5.25 ± 4.25 ng/mL
same,AUC(0-t),"[4]; male, 20 mg, single 20 mg",40 ± 21.1 ng·h/mL
same,half-life,"[4]; male, 20 mg, single 20 mg, read-out: t1/2 (converted)",64.2 ± 12.6 h
same,AUC(0-inf),[4]; [14],885 ± 241 ng·h/mL
same,Cmax,[4]; [14],62.2 ± 20.4 ng/mL
same,AUC(0-t),[4]; [14],385 ± 136 ng·h/mL
same,half-life,"[4]; male, 50 mg, single 50 mg, Japanese, read-out: t1/2 (converted)",64.4 ± 8.7 h
same,AUC(0-inf),[4]; [15],551 ± 262 ng·h/mL
same,Cmax,[4]; [15],31.7 ± 35 ng/mL
same,AUC(0-t),[4]; [15],219 ± 123 ng·h/mL
same,half-life,"[4]; male, 50 mg, single 50 mg, read-out: t1/2 (converted)",52 h
same,AUC(0-inf),"[4]; male, 100 mg, single 100 mg",1890 ± 698 ng·h/mL
same,Cmax,"[4]; male, 100 mg, single 100 mg",142 ± 108 ng/mL
same,AUC(0-inf),[4]; [16],1770 ± 418 ng·h/mL
same,Cmax,[4]; [16],190 ± 123 ng/mL
same,AUC(0-t),[4]; [16],920 ± 300 ng·h/mL
same,half-life,"[4]; male, 100 mg, single 100 mg, Japanese, read-out: t1/2 (converted)",57.6 ± 12 h
same,AUC(0-t),"[4]; male, 100 mg, single 100 mg",845 ± 401 ng·h/mL
same,half-life,"[4]; male, 100 mg, single 100 mg, read-out: t1/2 (converted)",72.8 ± 10.8 h
same,AUC(0-inf),"[4]; male, 150 mg, single 150 mg",2270 ± 911 ng·h/mL
same,Cmax,"[4]; male, 150 mg, single 150 mg",195 ± 185 ng/mL
same,AUC(0-t),"[4]; male, 150 mg, single 150 mg",1050 ± 551 ng·h/mL
same,half-life,"[4]; male, 150 mg, single 150 mg, read-out: t1/2 (converted)",60.5 ± 10.5 h
same,AUC(0-inf),"[4]; male, 200 mg, single 200 mg",3630 ± 1110 ng·h/mL
same,Cmax,"[4]; male, 200 mg, single 200 mg",274 ± 138 ng/mL
same,AUC(0-inf),[4]; [17],5200 ± 791 ng·h/mL
same,Cmax,[4]; [17],516 ± 200 ng/mL
same,AUC(0-t),[4]; [17],3090 ± 569 ng·h/mL
same,half-life,"[4]; male, 200 mg, single 200 mg, Japanese, read-out: t1/2 (converted)",58.4 ± 9 h
same,AUC(0-t),"[4]; male, 200 mg, single 200 mg",1740 ± 748 ng·h/mL
same,half-life,"[4]; male, 200 mg, single 200 mg, read-out: t1/2 (converted)",75.3 ± 9.1 h
same,AUC(0-inf),"[4]; male, 300 mg, single 300 mg",7380 ± 1410 ng·h/mL
same,Cmax,"[4]; male, 300 mg, single 300 mg",618 ± 231 ng/mL
same,AUC(0-inf),[4]; [18],6270 ± 1570 ng·h/mL
same,Cmax,[4]; [18],733 ± 210 ng/mL
same,AUC(0-t),[4]; [18],4050 ± 1240 ng·h/mL
same,half-life,"[4]; male, 300 mg, single 300 mg, Japanese, read-out: t1/2 (converted)",59.7 ± 9.2 h
same,AUC(0-t),"[4]; male, 300 mg, single 300 mg",4430 ± 996 ng·h/mL
same,half-life,"[4]; male, 300 mg, single 300 mg, read-out: t1/2 (converted)",63.4 ± 3 h
same,AUC(0-inf),"[4]; male, 450 mg, single 450 mg",9160 ± 1850 ng·h/mL
same,Cmax,"[4]; male, 450 mg, single 450 mg",645 ± 165 ng/mL
same,AUC(0-t),"[4]; male, 450 mg, single 450 mg",5510 ± 1440 ng·h/mL
same,half-life,"[4]; male, 450 mg, single 450 mg, read-out: t1/2 (converted)",60 ± 9.4 h
same,AUC(0-inf),"[4]; male, 600 mg, single 600 mg",15500 ± 3450 ng·h/mL
same,Cmax,"[4]; male, 600 mg, single 600 mg",1330 ± 529 ng/mL
same,AUC(0-t),"[4]; male, 600 mg, single 600 mg",10900 ± 2770 ng·h/mL
same,half-life,"[4]; male, 600 mg, single 600 mg, read-out: t1/2 (converted)",60.5 ± 5.2 h
same,half-life,"[4]; male, 10 to 600 mg, healthy young males, read-out: terminal elimination t1/2",43 to 75 h
same,half-life,"[4]; male, Japanese subjects, read-out: harmonic mean apparent terminal t1/2",58 to 71 h
same,AUC0-inf higher in elderly than young males,[4]; single 50 mg,~70%
same,Cmax higher in elderly than young males,[4]; single 50 mg,60%
same,t1/2,[4]; single 50 mg,52 h and 52.0 ± 7.8 h
same,t1/2,"[4]; single 50 mg, elderly male and female",92 h and 92.1 ± 15.9 h
same,"exposure increase, Japanese vs non-Japanese young males",[4]; single dose,< 2 fold
same,AUC(0-inf),[5]; 1 × 150 mg capsule,2840 ng·h/mL
same,Cmax,[5]; 1 × 150 mg capsule,237 ng/mL
same,AUC(0-inf),[5]; 3 × 50 mg tablets,2660 ng·h/mL
same,Cmax,[5]; 3 × 50 mg tablets,213 ng/mL
same,"AUC0-inf reduction, fed vs fasted",[6]; [19],46%
same,"Cmax reduction, fed vs fasted",[6]; [19],67%
same,"delay in Tmax, fed vs fasted",[6]; [19],~1 h
same,"AUC0-inf reduction, fed vs fasted",[6]; [20],37%
same,"Cmax reduction, fed vs fasted",[6]; [20],52%
same,Ctrough,"[6]; 150 mg multiple dose day 14, middle-aged females, fed",65.3 ± 7.87 ng/mL
same,AUC0-24 reduction with food vs fasted,"[6]; 150 mg multiple dose, females, Day 14",~20%
same,AUC0-24 with food compared to fasted,[6]; [21],~42%
same,Cmax with food compared to fasted,[6]; [21],59%
same,Cmax,[6]; [22],185 ± 32.3 ng/mL
same,Tmax,[6]; [22],6 h
same,AUC(0-t),[6]; [22],2540 ± 334 ng·h/mL
same,AUC(0-inf),[6]; [23],605 ± 222 ng·h/mL
same,Cmax,[6]; [23],36.2 ± 33.3 ng/mL
same,AUC(0-t),[6]; [23],226 ± 112 ng·h/mL
same,AUC(0-inf),[6]; [24],316 ± 127 ng·h/mL
same,Cmax,[6]; [24],7.6 ± 2.27 ng/mL
same,Tmax,[6]; [24],3 h
same,AUC(0-t),[6]; [24],90.7 ± 22.9 ng·h/mL
same,CL/F,[7]; healthy matched controls,68.3 L/h
same,AUC(0-inf),[7]; [25],1440 ng·h/mL
same,Cmax,[7]; [25],125 ng/mL
same,half-life,[7]; [25],92.5 h
same,AUC(0-inf),[7]; [26],1820 ng·h/mL
same,Cmax,[7]; [26],168 ng/mL
same,Tmax,[7]; [26],1 h
same,half-life,[7]; [26],94.5 h
same,CL/F,[7]; moderate hepatic impairment,56.0 L/h
same,Maximum MA4 HR (LS mean),[8]; 25 mg,1.47 bpm
same,"Maximum MA4 HR, difference from placebo",[8]; 25 mg,−1.60 bpm
same,Maximum MA4 HR (LS mean),[8]; 50 mg,1.50 bpm
same,"Maximum MA4 HR, difference from placebo",[8]; 50 mg,−1.57 bpm
same,Maximum MA4 HR (LS mean),[8]; 100 mg,3.28 bpm
same,Maximum MA4 HR (LS mean),[8]; 150 mg,3.17 bpm
same,"Maximum MA4 HR, difference from placebo",[8]; 150 mg,0.10 bpm
same,Maximum MA4 HR (LS mean),[8]; 200 mg,5.67 bpm
same,"Maximum MA4 HR, difference from placebo",[8]; 200 mg,2.60 bpm
same,Maximum MA4 HR (LS mean),[8]; 300 mg,9.06 bpm
same,"Maximum MA4 HR, difference from placebo",[8]; 300 mg,5.98 bpm
same,Maximum MA4 HR (LS mean),[8]; 400 mg,10.33 bpm
same,"Maximum MA4 HR, difference from placebo",[8]; 400 mg,7.26 bpm
same,CYP2D6 inhibition,[9],does not inhibit CYP2D6
same,Cmax,[10]; in vivo,107 ng/mL
same,Cmax,"[10]; plasma, oral",152 ng/mL
same,half-life,"[10]; plasma, oral",131 h
same,EC50,[11],1.1 nM
same,EC50,[11]; 40% human serum,1.7 nM

# From US20210196720A1 (UROVANT SCIENCES GMBH, priority 2018, published 2021)
